Results reported in ChEMBL document CHEMBL3797178, “Synthesis, antimycobacterial and antibacterial activity of 1-(6-amino-3,5-difluoropyridin-2-yl)fluoroquinolone derivatives containing an oxime functional moiety” (2016).
≈ marks a conversion by molar mass, not a printed value.

Key:
Assay type in all cases: functional
Pseudomonas aeruginosa [1] = assay: Antibacterial activity against Pseudomonas aeruginosa 14-9 after 18 to 24 hrs by CLSI M100-S11 method
Enterococcus faecium [2] = assay: Antibacterial activity against Enterococcus faecium 14-1 after 18 to 24 hrs by CLSI M100-S11 method
Klebsiella pneumoniae [3] = assay: Antibacterial activity against extended-spectrum beta-lactamase-producing Klebsiella pneumoniae 14-19 after 18 to 24 hrs by CLSI M100-S11 method
Escherichia coli [4] = assay: Antibacterial activity against extended-spectrum beta-lactamase-producing Escherichia coli 14-2 after 18 to 24 hrs by CLSI M100-S11 method
Staphylococcus aureus [5] = assay: Antibacterial activity against methicillin-resistant Staphylococcus aureus 14-5 after 18 to 24 hrs by CLSI M100-S11 method
Streptococcus pneumoniae = assay: Antibacterial activity against Streptococcus pneumoniae ATCC 19615 after 18 to 24 hrs by CLSI M100-S11 method
Klebsiella pneumoniae [6] = assay: Antibacterial activity against extended-spectrum beta-lactamase-producing Klebsiella pneumoniae 14-17 after 18 to 24 hrs by CLSI M100-S11 method
Pseudomonas aeruginosa [7] = assay: Antibacterial activity against Pseudomonas aeruginosa 14-15 after 18 to 24 hrs by CLSI M100-S11 method
Staphylococcus aureus [8] = assay: Antibacterial activity against methicillin-resistant Staphylococcus aureus 14-4 after 18 to 24 hrs by CLSI M100-S11 method
[9] = tested on: Mycobacterium tuberculosis; assay: Antimycobacterial activity against Mycobacterium tuberculosis H37Rv ATCC 27294 after 3 days by microplate Alamar Blue assay; conditions: H37Rv ATCC 27294, 72 h
Klebsiella pneumoniae [10] = assay: Antibacterial activity against extended-spectrum beta-lactamase-producing Klebsiella pneumoniae 14-18 after 18 to 24 hrs by CLSI M100-S11 method
Klebsiella pneumoniae [11] = assay: Antibacterial activity against Klebsiella pneumoniae 14-2 after 18 to 24 hrs by CLSI M100-S11 method
Enterococcus faecium [12] = assay: Antibacterial activity against Enterococcus faecium 14-2 after 18 to 24 hrs by CLSI M100-S11 method
[13] = tested on: Staphylococcus epidermidis; assay: Antibacterial activity against methicillin-sensitive Staphylococcus epidermidis 14-2 after 18 to 24 hrs by CLSI M100-S11 method
Escherichia coli [14] = assay: Antibacterial activity against Escherichia coli ATCC 25922 after 18 to 24 hrs by CLSI M100-S11 method
[15] = tested on: Staphylococcus epidermidis; assay: Antibacterial activity against methicillin-resistant Staphylococcus epidermidis 14-37 after 18 to 24 hrs by CLSI M100-S11 method
Pseudomonas aeruginosa [16] = assay: Antibacterial activity against Pseudomonas aeruginosa 14-16 after 18 to 24 hrs by CLSI M100-S11 method
Pseudomonas aeruginosa [17] = assay: Antibacterial activity against Pseudomonas aeruginosa ATCC 27853 after 18 to 24 hrs by CLSI M100-S11 method
[18] = tested on: Staphylococcus epidermidis; assay: Antibacterial activity against methicillin-sensitive Staphylococcus epidermidis 14-4 after 18 to 24 hrs by CLSI M100-S11 method
[19] = tested on: Staphylococcus epidermidis; assay: Antibacterial activity against methicillin-resistant Staphylococcus epidermidis 14-39 after 18 to 24 hrs by CLSI M100-S11 method
Escherichia coli [20] = assay: Antibacterial activity against extended-spectrum beta-lactamase-producing Escherichia coli 14-1 after 18 to 24 hrs by CLSI M100-S11 method
Escherichia coli [21] = assay: Antibacterial activity against Escherichia coli 14-2 after 18 to 24 hrs by CLSI M100-S11 method
Pseudomonas aeruginosa [22] = assay: Antibacterial activity against Pseudomonas aeruginosa 14-14 after 18 to 24 hrs by CLSI M100-S11 method
[23] = tested on: Staphylococcus epidermidis; assay: Antibacterial activity against methicillin-sensitive Staphylococcus epidermidis 14-6 after 18 to 24 hrs by CLSI M100-S11 method
Klebsiella pneumoniae [24] = assay: Antibacterial activity against Klebsiella pneumoniae 14-4 after 18 to 24 hrs by CLSI M100-S11 method
Enterococcus faecalis [25] = assay: Antibacterial activity against Enterococcus faecalis 14-2 after 18 to 24 hrs by CLSI M100-S11 method
Pseudomonas aeruginosa [26] = assay: Antibacterial activity against Pseudomonas aeruginosa 14-19 after 18 to 24 hrs by CLSI M100-S11 method
Klebsiella pneumoniae [27] = assay: Antibacterial activity against Klebsiella pneumoniae 14-1 after 18 to 24 hrs by CLSI M100-S11 method
Klebsiella pneumoniae [28] = assay: Antibacterial activity against Klebsiella pneumoniae 14-3 after 18 to 24 hrs by CLSI M100-S11 method
Escherichia coli [29] = assay: Antibacterial activity against Escherichia coli 14-1 after 18 to 24 hrs by CLSI M100-S11 method
Staphylococcus aureus [30] = assay: Antibacterial activity against methicillin-sensitive Staphylococcus aureus 14-3 after 18 to 24 hrs by CLSI M100-S11 method
Enterococcus faecalis [31] = assay: Antibacterial activity against Enterococcus faecalis 14-1 after 18 to 24 hrs by CLSI M100-S11 method
Staphylococcus aureus [32] = assay: Antibacterial activity against methicillin-sensitive Staphylococcus aureus 14-2 after 18 to 24 hrs by CLSI M100-S11 method
[33] = tested on: Staphylococcus epidermidis; assay: Antibacterial activity against methicillin-resistant Staphylococcus epidermidis 14-22 after 18 to 24 hrs by CLSI M100-S11 method
Staphylococcus aureus [34] = assay: Antibacterial activity against methicillin-sensitive Staphylococcus aureus 14-4 after 18 to 24 hrs by CLSI M100-S11 method
Staphylococcus aureus [35] = assay: Antibacterial activity against Staphylococcus aureus CMCC 26003 after 18 to 24 hrs by CLSI M100-S11 method
Enterococcus faecalis [36] = assay: Antibacterial activity against Enterococcus faecalis 14-3 after 18 to 24 hrs by CLSI M100-S11 method

Compound	MIC (Pseudomonas aeruginosa [1])	MIC (Enterococcus faecium [2])	MIC (Klebsiella pneumoniae [3])	MIC (Escherichia coli [4])	MIC (Staphylococcus aureus [5])	MIC (Streptococcus pneumoniae)	MIC (Klebsiella pneumoniae [6])	MIC (Pseudomonas aeruginosa [7])	MIC (Staphylococcus aureus [8])	MIC [9]	MIC (Klebsiella pneumoniae [10])	MIC (Klebsiella pneumoniae [11])	MIC (Enterococcus faecium [12])	MIC [13]	MIC (Escherichia coli [14])	MIC [15]	MIC (Pseudomonas aeruginosa [16])	MIC (Pseudomonas aeruginosa [17])	MIC [18]	MIC [19]	other results
CC1(CN)CN(c2nc3c(cc2F)c(=O)c(C(=O)O)cn3-c2nc(N)c(F)cc2F)C/C1=N\OCc1ccccc1 (centres undefined)	128 µg/mL (≈ 226 µM)	> 128 µg/mL	> 128 µg/mL	> 128 µg/mL	64 µg/mL (≈ 113 µM)	32 µg/mL (≈ 56.4 µM)	> 128 µg/mL	128 µg/mL (≈ 226 µM)	64 µg/mL (≈ 113 µM)	15.6 µg/mL (≈ 27.5 µM)	> 128 µg/mL	> 128 µg/mL	8 µg/mL (≈ 14.1 µM)	> 128 µg/mL	16 µg/mL (≈ 28.2 µM)	> 128 µg/mL	128 µg/mL (≈ 226 µM)	128 µg/mL (≈ 226 µM)	> 128 µg/mL	> 128 µg/mL	MIC (Escherichia coli [20]): 64 µg/mL (≈ 113 µM); MIC (Escherichia coli [21]): 128 µg/mL (≈ 226 µM); MIC (Pseudomonas aeruginosa [22]): 128 µg/mL (≈ 226 µM); MIC [23]: > 128 µg/mL; MIC (Klebsiella pneumoniae [24]): > 128 µg/mL; MIC (Enterococcus faecalis [25]): > 128 µg/mL; MIC (Pseudomonas aeruginosa [26]): 128 µg/mL (≈ 226 µM); MIC (Klebsiella pneumoniae [27]): > 128 µg/mL; MIC (Klebsiella pneumoniae [28]): > 128 µg/mL; MIC (Escherichia coli [29]): > 128 µg/mL; MIC (Staphylococcus aureus [30]): 8 µg/mL (≈ 14.1 µM); MIC (Enterococcus faecalis [31]): > 128 µg/mL; MIC (Staphylococcus aureus [32]): 0.25 µg/mL (≈ 0.441 µM); MIC [33]: 64 µg/mL (≈ 113 µM); MIC (Staphylococcus aureus [34]): 4 µg/mL (≈ 7.05 µM); MIC (Staphylococcus aureus [35]): 0.25 µg/mL (≈ 0.441 µM); MIC (Enterococcus faecalis [36]): > 128 µg/mL
NCC1CN(c2nc3c(cc2F)c(=O)c(C(=O)O)cn3-c2nc(N)c(F)cc2F)C/C1=N\OCc1ccccc1 (centres undefined)	32 µg/mL (≈ 57.8 µM)	128 µg/mL (≈ 231 µM)	128 µg/mL (≈ 231 µM)	128 µg/mL (≈ 231 µM)	128 µg/mL (≈ 231 µM)	16 µg/mL (≈ 28.9 µM)	64 µg/mL (≈ 116 µM)	32 µg/mL (≈ 57.8 µM)	64 µg/mL (≈ 116 µM)	3.81 µg/mL (≈ 6.88 µM)	32 µg/mL (≈ 57.8 µM)	128 µg/mL (≈ 231 µM)	16 µg/mL (≈ 28.9 µM)	64 µg/mL (≈ 116 µM)	0.5 µg/mL (≈ 0.903 µM)	32 µg/mL (≈ 57.8 µM)	32 µg/mL (≈ 57.8 µM)	8 µg/mL (≈ 14.5 µM)	32 µg/mL (≈ 57.8 µM)	32 µg/mL (≈ 57.8 µM)	MIC (Escherichia coli [20]): 8 µg/mL (≈ 14.5 µM); MIC (Escherichia coli [21]): 128 µg/mL (≈ 231 µM); MIC (Pseudomonas aeruginosa [22]): 32 µg/mL (≈ 57.8 µM); MIC [23]: 32 µg/mL (≈ 57.8 µM); MIC (Klebsiella pneumoniae [24]): 128 µg/mL (≈ 231 µM); MIC (Enterococcus faecalis [25]): 16 µg/mL (≈ 28.9 µM); MIC (Pseudomonas aeruginosa [26]): 32 µg/mL (≈ 57.8 µM); MIC (Klebsiella pneumoniae [27]): 128 µg/mL (≈ 231 µM); MIC (Klebsiella pneumoniae [28]): 128 µg/mL (≈ 231 µM); MIC (Escherichia coli [29]): 128 µg/mL (≈ 231 µM); MIC (Staphylococcus aureus [30]): 0.25 µg/mL (≈ 0.452 µM); MIC (Enterococcus faecalis [31]): 8 µg/mL (≈ 14.5 µM); MIC (Staphylococcus aureus [32]): 0.015 µg/mL (≈ 0.0271 µM); MIC [33]: 16 µg/mL (≈ 28.9 µM); MIC (Staphylococcus aureus [34]): 0.25 µg/mL (≈ 0.452 µM); MIC (Staphylococcus aureus [35]): < 0.008 µg/mL; MIC (Enterococcus faecalis [36]): 16 µg/mL (≈ 28.9 µM)
